Patent US12473350B2, “Recombinant humanized type III collagen microsphere with innovative spatial structure, and design, preparation process and usethereof” (Nanjing Tzone Biotechnology Co., Ltd., priority 2023, dated 2025)

Tested on: Human skin fibroblasts (HSF cells)
Assay: MTT assay, effect on HSF cell growth
Assay type: cell-based
Details: 10% DMSO
Method: Dimethyl sulfoxide (DMSO) can dissolve formazan in cells, and its light absorption value can be measured at a wavelength of […] using an enzyme-linked immunosorbent assay, which can indirectly reflect the number of live cells. Within a certain range of cell numbers, the amount of MTT crystals formed is proportional to the number of cells.
Logarithmic phase cells are collected and the cell suspension concentration is adjusted. 100 μL of cell suspension is added per well and plated to adjust the density of the cells to be tested to 10,000 cells/well, and the edge wells are filled with sterile PBS. The cells are incubated under 5% CO2 at 37° C. until the cell monolayer spreads over all the bottom of the wells. Then, the drug in a concentration gradient is added; in principle, the drug can be added once the cells have adhered, with five parallel settings. The incubation is performed under 5% CO2 at 37° C. for 24 h or 48 h and the cells are observed under an inverted microscope. 20 μL of MTT solution (5 mg/mL, i.e., 0.5% MTT) is added to each well and the incubation is continued for 4 h. […] The light absorption value of each well is measured at […] using an Enzyme-Linked Immunosorbent Assay (ELISA) reader. […]

With `C[S+](C)[O-]` [DMSO, Dimethyl Sulfoxide, reference compound] the “RGR (24 h)” value (24 h) was 28.20% and the “RGR (48 h)” value (48 h) was 17.15%.
